According to US10377763B2, “Morphinan derivative and medical usage thereof” (UNIVERSITY OF TSUKUBA, priority 2015, dated 2019):
pIC50: −log10 of the molar value. Where “and” joins values, the source holds several entries; their conditions need not be identical. Equal values may be shown once.

Columns and labels:
[1] = test system: male ICR mice with morphine physical dependence; test: Evaluation of the therapeutic effect on drug dependence (naloxone-induced withdrawal syndrome in morphine-dependent mice); type: in vivo; conditions: 10 mg/kg i.p. 30 minutes prior to naloxone 3 mg/kg s.c., after repeated morphine
Experimental: Increasing doses of morphine hydrochloride dissolved in saline were administered subcutaneously to 7-week-old male ICR mice twice daily (dosing interval: about 12 hours) for four days (dose: Day 1, 8 mg/kg followed by 15 mg/kg; Day 2, 20 mg/kg followed by 25 mg/kg; Day 3, 30 mg/kg followed by 35 mg/kg; Day 4, 40 mg/kg followed by 45 mg/kg). On Day 5, the mice were administered subcutaneously with morphine hydrochloride at 45 mg/kg as the final dose. Two hours after the final administration of morphine hydrochloride, the mice were administered subcutaneously with naloxone hydrochloride at 3 mg/kg. The mice were administered intraperitoneally with the compound of Example 45 (Compound 26) at 10 mg/kg or saline, the solvent of the compound, 30 minutes prior to the administration of naloxone hydrochloride. Symptoms of withdrawal syndrome (jumping, body shake, ptosis, forepaw tremor, rearing, body weight loss, and diarrhea) which appeared 60 minutes after the last dose of naloxone hydrochloride were observed. Body weight was measured before and every 15 minutes after naloxone hydrochloride administration. Moreover, diarrhea was graded according to a three-point scoring system based on the appearance of feces: normal feces, loose feces, and liquid feces or liquid diarrhea. The other symptoms of withdrawal syndrome were evaluated based on the presence or absence of their manifestation. Statistical analysis was performed using chi square test and two-way analysis of variance and setting the significance level at p<0.05.

[2] = test system: male ICR mice with morphine physical dependence; test: Evaluation of the prophylactic effect on drug dependence (naloxone-induced withdrawal syndrome in morphine-dependent mice); type: in vivo; conditions: 10 mg/kg repeatedly with morphine Day 1-5, naloxone 3 mg/kg s.c.
Experimental: Increasing doses of morphine hydrochloride dissolved in saline were administered subcutaneously to 7-week-old male ICR mice twice daily (dosing interval: about 12 hours) for four days (dose: Day 1, 8 mg/kg followed by 15 mg/kg; Day 2, 20 mg/kg followed by 25 mg/kg; Day 3, 30 mg/kg followed by 35 mg/kg; Day 4, 40 mg/kg followed by 45 mg/kg). On Day 1 to Day 4, the mice were administered intraperitoneally with the compound of Example 45 (Compound 26) at 10 mg/kg or saline, the solvent of the compound, 30 minutes prior to every first administration of morphine hydrochloride. On Day 5, the mice were administered subcutaneously with the compound of Example 45 (Compound 26) at 10 mg/kg or saline, and 30 minutes later administered subcutaneously with morphine hydrochloride at 45 mg/kg as the final dose. Two hours after the final administration of morphine hydrochloride, the mice were administered subcutaneously with naloxone hydrochloride at 3 mg/kg; symptoms of withdrawal syndrome (jumping, body shake, ptosis, forepaw tremor, rearing, body weight loss, and diarrhea) which appeared 60 minutes after administration of naloxone hydrochloride were observed. Body weight was measured before and every 15 minutes after naloxone hydrochloride administration. Moreover, diarrhea was graded according to a three-point scoring system based on the appearance of feces: normal feces (Normal), loose feces (Slightly), and liquid feces or liquid diarrhea (Severe). The other symptoms of withdrawal syndrome were evaluated based on the presence or absence of their manifestation. Statistical analysis was performed using chi square test and two-way analysis of variance and setting the significance level at p<0.05.

human OX1R = human OX1R (Homo sapiens (Human), UniProt O43613); test: Measurement of antagonistic activity against orexin receptors (intracellular calcium, CHOOX1R cells); type: cell-based
Sequence of human OX1R (O43613 whole entry): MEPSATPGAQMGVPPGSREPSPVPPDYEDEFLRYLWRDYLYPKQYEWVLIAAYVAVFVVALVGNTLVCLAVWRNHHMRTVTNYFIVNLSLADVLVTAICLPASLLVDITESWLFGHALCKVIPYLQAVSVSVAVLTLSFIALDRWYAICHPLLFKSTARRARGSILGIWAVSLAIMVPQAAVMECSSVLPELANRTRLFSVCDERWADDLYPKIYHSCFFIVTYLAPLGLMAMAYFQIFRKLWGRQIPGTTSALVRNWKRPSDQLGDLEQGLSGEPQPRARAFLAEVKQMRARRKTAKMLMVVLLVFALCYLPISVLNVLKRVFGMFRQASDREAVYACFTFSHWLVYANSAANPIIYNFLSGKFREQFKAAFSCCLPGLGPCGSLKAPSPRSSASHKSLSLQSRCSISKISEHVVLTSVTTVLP
Experimental: (§1) The Chinese hamster ovary (CHO) cell lines CHOOX1R and CHOOX2R were established by modifying CHO cells to constantly express the NFAT-luciferase gene and either the human OX1R or human OX2R gene. Those cells were plated at 10,000 cells/well in 96-well multiplates with DMEM (manufactured by Sigma-Aldrich Co. LLC) supplemented with 5% FBS (manufactured by Thermo Scientific Inc.) and incubated at 37° C. and 5% CO2 for 48 hours. After removal of the medium, 100 μL of an assay buffer (20 mM HEPES (manufactured by Sigma-Aldrich Co. LLC), Hank's balanced salt solution (manufactured by Gibco), 0.1% BSA (manufactured by Sigma-Aldrich Co. LLC), 2.5 mM probenecid acid (manufactured by Wako Pure Chemical Industries, Ltd.), pH 7.4) containing 5 μM Fura-2AM (manufactured by Cayman Chemical Co.) was added to each well, and incubated at 37° C. and 5% CO2 for 60 minutes. After removal of the buffer containing Fura-2AM, 75 μL of the assay buffer was added to each well. Then, […] of the assay buffer containing a test compound at various concentrations and OX-A (manufactured by Peptide Institute, Inc.) was added to start the reaction. The change in intracellular calcium ion concentration induced by the reaction was evaluated by the ratio of fluorescent intensities, which were measured at a wavelength of 510 nm based on the two wavelength excitation approach using FDSS 7000 (manufactured by Hamamatsu Photonics K.K.) with fluorescence excitation at 340 nm and 380 nm. A concentration-response curve on the antagonistic activity was plotted from the values of maximal fluorescent intensity ratio determined when various concentrations of a test compound were added in the presence of […] of OX-A, where a value of maximal fluorescent intensity ratio determined by adding 300 pM of OX-A alone corresponds to 100% and a value of maximal fluorescent intensity ratio determined by adding the assay buffer alone corresponds to 0%. Based on the resulting non-linear regression curve, the 50% maximal inhibitory concentration (IC50) was calculated. Each test compound was dissolved in DMSO to a concentration of 10 mM (the final concentration of DMSO was 1%), and then diluted with the assay buffer to give a final concentration of 3.0×10^−10 M to 1.0×10^−5 M (a common ratio of 3), while OX-A was diluted to a final concentration of 300 pM. The experiment was performed in quadruplicate plates, and the results of the four independent measurements were averaged to give the value of each reaction, and then the IC50 of a sample was calculated. If the sample number was 2 or more, the averaged IC50 was used.

human OX2R = human OX2R (Homo sapiens (Human), UniProt O43614); test: Measurement of antagonistic activity against orexin receptors (intracellular calcium, CHOOX2R cells); type: cell-based
Sequence of human OX2R (O43614 whole entry): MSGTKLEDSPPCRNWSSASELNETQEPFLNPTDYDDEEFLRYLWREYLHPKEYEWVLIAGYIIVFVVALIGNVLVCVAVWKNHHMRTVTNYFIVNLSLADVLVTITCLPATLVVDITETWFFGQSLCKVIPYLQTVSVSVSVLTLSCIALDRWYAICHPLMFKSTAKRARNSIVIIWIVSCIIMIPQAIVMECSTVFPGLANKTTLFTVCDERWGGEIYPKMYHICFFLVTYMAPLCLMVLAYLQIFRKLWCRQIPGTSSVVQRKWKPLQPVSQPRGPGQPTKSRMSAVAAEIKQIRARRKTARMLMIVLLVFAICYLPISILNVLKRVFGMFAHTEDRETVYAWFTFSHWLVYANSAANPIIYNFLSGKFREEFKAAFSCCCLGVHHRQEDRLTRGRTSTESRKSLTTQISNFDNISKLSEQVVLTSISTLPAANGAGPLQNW
Experimental: as §1

COc1ccc2c3c1O[C@H]1[C@H](N(C)C(=O)/C=C/c4ccccn4)CC[C@@]4(O)[C@@H](C2)N(S(=O)(=O)c2ccccc2N(C)C)CC[C@]314 [Example 45, (E)-N-[(4R,4aS,7R,7aR,12bS)-3-{[2-(dimethylamino)phenyl]sulfonyl}-4a-hydroxy-9-methoxy-2,3,4,4a,5,6,7,7a-octahydro-1H-4,12-methanobenzofuro[3,2-e]isoquinolin-7-yl]-N-methyl-3-(pyridin-2-yl)acrylamide]
Body shake: number of animals with withdrawal syndrome/total number of animals [1]: 7/13
Diarrhea score Liquid feces or liquid diarrhea (number of corresponding animals/total number of animals) [1]: 3/13
Diarrhea score Loose feces (number of corresponding animals/total number of animals) [1]: 8/13
Diarrhea score Normal feces (number of corresponding animals/total number of animals) [1]: 2/13
Forepaw tremor: number of animals with withdrawal syndrome/total number of animals [1]: 11/13
Jumping: number of animals with withdrawal syndrome/total number of animals [1]: statistically significantly suppressed and 2/13**
Ptosis: number of animals with withdrawal syndrome/total number of animals [1]: tendency to suppress and 3/13
Rearing: number of animals with withdrawal syndrome/total number of animals [1]: 11/13
diarrhea (withdrawal syndrome, in words) [1]: statistically significantly suppressed
body weight loss (withdrawal syndrome) ([1]; FIG. 2): statistically significantly suppressed
Body shake: number of animals with withdrawal syndrome/total number of animals [2]: 6/8
Diarrhea score Liquid feces or liquid diarrhea (number of corresponding animals/total number of animals) [2]: 2/8
Diarrhea score Loose feces (number of corresponding animals/total number of animals) [2]: 4/8
Diarrhea score Normal feces (number of corresponding animals/total number of animals) [2]: 2/8
Forepaw tremor: number of animals with withdrawal syndrome/total number of animals [2]: 6/8
Jumping: number of animals with withdrawal syndrome/total number of animals [2]: statistically significantly suppressed and 1/8*
Ptosis: number of animals with withdrawal syndrome/total number of animals [2]: tendency to suppress and 4/8
Rearing: number of animals with withdrawal syndrome/total number of animals [2]: tendency to suppress and 5/8
diarrhea (withdrawal syndrome, in words) [2]: statistically significantly suppressed
body weight loss (withdrawal syndrome) ([2]; FIG. 1): statistically significantly suppressed
pIC50 (human OX1R): 8.44
antagonistic activity against human OX1 receptor (in words) (human OX1R; summary of Table 6): potent and selective antagonistic activity
pIC50 (human OX2R): < 5.00
